Test results as given in patent US12612387B2, “RAS inhibitors and methods of using the same” (Jazz Pharmaceuticals Ireland Limited, priority 2020, dated 2026).

Key:
K-RAS G12C = target: T1, K-RAS G12C (Homo sapiens, UniProt P01116, G12C); assay: Compound depletion assay, K-RAS G12C; assay type: binding; conditions: G12C protein 20 μM, compound 8 μM, 25° C.
T1 construct: His tag; purchased Stratech
Method: (§1) Compound Depletion Assay Method
(§2) Lyophilized human K-RAS (12 Cys) protein (His tag) and human K-RAS (12 Asp) protein (His tag) were purchased from Stratech and reconstituted at 30 μM in water. The protein concentration of K-RAS G12C and K-RAS G12D was adjusted to 20 μM in K-RAS Assay Buffer (20 mM HEPES pH 7.5, 150 mM NaCl, 1 mM MgCl2). A 49 μl aliquot of protein solution was transferred to 1.5 ml eppendorfs and incubated at room temperature for 10 minutes. A 1 μl aliquot of compound solution in DMSO was added to the protein solutions in the 1.5 ml eppendorfs to initiate the reaction, with a final assay compound concentration of 8 μM. Reactions were agitated at 25° C., 700 rpm. At each time point (0, 30, 180, 360, 1440 minutes), 10 μl of the reaction mixture was removed, added to 30 μl quench solution (0.3% formic acid, 75 nM propranolol in acetonitrile) to stop the reaction and stored at 4° C. Once all reactions were quenched, the samples were centrifuged at 16000 g for 10 minutes to pellet the protein and salts. A 10 μl aliquot of supernatant containing compound was diluted in 50:50 acetonitrile:H2O in a 96 well plate. The plates were heat sealed and the samples analysed by LC-MS/MS to determine the concentration of compound remaining in the samples. To determine the reaction progress, the compound signal was normalized to the internal standard signal (propranolol). The decrease in free compound concentration is shown as a percentage over time, with the […] at time zero fixed at one hundred percent. Compound is assumed to be completely depleted when no longer detectable with a double blank sample as reference.

K-RAS G12D = target: T2, K-RAS G12D (Homo sapiens, UniProt P01116, G12D); assay: Compound depletion assay, K-RAS G12D; assay type: binding; conditions: G12D protein 20 μM, compound 8 μM, 25° C.
T2 construct: His tag; purchased Stratech
Method: as §1, §2

T2 sequence (P01116 1-188 isoform P01116-2 G12D): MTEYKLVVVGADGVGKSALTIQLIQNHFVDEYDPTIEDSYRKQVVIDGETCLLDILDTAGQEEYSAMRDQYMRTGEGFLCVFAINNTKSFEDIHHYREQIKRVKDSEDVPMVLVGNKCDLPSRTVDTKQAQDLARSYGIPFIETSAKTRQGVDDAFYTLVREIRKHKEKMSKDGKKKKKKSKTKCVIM
T1 sequence (P01116 1-188 isoform P01116-2 G12C): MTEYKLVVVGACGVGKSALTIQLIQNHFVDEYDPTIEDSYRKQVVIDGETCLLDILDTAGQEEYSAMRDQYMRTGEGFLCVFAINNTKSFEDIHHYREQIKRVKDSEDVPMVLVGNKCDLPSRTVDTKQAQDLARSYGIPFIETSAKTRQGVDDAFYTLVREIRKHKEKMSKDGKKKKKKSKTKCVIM

| Structure (SMILES) | 3 hr Category (compound remaining at timepoint) (K-RAS G12C) | 24 hr Category (compound remaining at timepoint) (K-RAS G12C) | 3 hr Category (compound remaining at timepoint) (K-RAS G12D) | 24 hr Category (compound remaining at timepoint) (K-RAS G12D) |
| --- | --- | --- | --- | --- |
| C=CC(=O)N1CCN(c2cc(C(=O)N(C)c3cccc4ccccc34)nc(OC[C@@H]3CCCN3C)n2)CC1 [Example 13, N-methyl-2-[[(2S)-1-methylpyrrolidin-2-yl]methoxy]-N-(1-naphthyl)-6-(4-prop-2-enoylpiperazin-1-yl)pyrimidine-4-carboxamide] | A (≥70% compound remaining at timepoint) | A (≥70% compound remaining at timepoint) | A (≥70% compound remaining at timepoint) | A (≥70% compound remaining at timepoint) |
| C=CC(=O)N1CCN(c2cc(C(=O)NCc3ccccc3)nc(OC[C@@H]3CCCN3C)n2)CC1 [Example 14, N-benzyl-2-[[(2S)-1-methylpyrrolidin-2-yl]methoxy]-6-(4-prop-2-enoylpiperazin-1-yl)pyrimidine-4-carboxamide] | A (≥70% compound remaining at timepoint) | A (≥70% compound remaining at timepoint) | A (≥70% compound remaining at timepoint) | A (≥70% compound remaining at timepoint) |
| C=CC(=O)N1CCN(c2cc(C(=O)N3c4ccccc4CCC3C)nc(OC[C@@H]3CCCN3C)n2)CC1 (stereo partly drawn) [Example 15, 1-[4-[6-(2-methyl-3,4-dihydro-2H-quinoline-1-carbonyl)-2-[[(2S)-1-methylpyrrolidin-2-yl]methoxy]pyrimidin-4-yl]piperazin-1-yl]prop-2-en-1-one] | A (≥70% compound remaining at timepoint) | A (≥70% compound remaining at timepoint) | A (≥70% compound remaining at timepoint) | A (≥70% compound remaining at timepoint) |
| C=CC(=O)N1CCN(c2cc(C(=O)N3CCOc4ccccc43)nc(OC[C@@H]3CCCN3C)n2)CC1 [Example 16, 1-[4-[6-(2,3-dihydro-1,4-benzoxazine-4-carbonyl)-2-[[(2S)-1-methylpyrrolidin-2-yl]methoxy]pyrimidin-4-yl]piperazin-1-yl]prop-2-en-1-one] | A (≥70% compound remaining at timepoint) | A (≥70% compound remaining at timepoint) | A (≥70% compound remaining at timepoint) | A (≥70% compound remaining at timepoint) |
| C=CC(=O)N1CCN(c2cc(C(=O)N3CCCc4cccc(C)c43)nc(OC[C@@H]3CCCN3C)n2)CC1 [Example 17, 1-[4-[6-(8-methyl-3,4-dihydro-2H-quinoline-1-carbonyl)-2-[[(2S)-1-methylpyrrolidin-2-yl]methoxy]pyrimidin-4-yl]piperazin-1-yl]prop-2-en-1-one] | A (≥70% compound remaining at timepoint) | A (≥70% compound remaining at timepoint) | A (≥70% compound remaining at timepoint) | A (≥70% compound remaining at timepoint) |
| C=CC(=O)N1CCN(c2cc(C(=O)Nc3ccccc3)nc(OC[C@@H]3CCCN3C)n2)CC1 [Example 18, 2-[[(2S)-1-methylpyrrolidin-2-yl]methoxy]-N-phenyl-6-(4-prop-2-enoylpiperazin-1-yl)pyrimidine-4-carboxamide] | A (≥70% compound remaining at timepoint) | A (≥70% compound remaining at timepoint) | A (≥70% compound remaining at timepoint) | A (≥70% compound remaining at timepoint) |
